# Results taken from PubChem BioAssay AID2060488 (Molecular Pharmacology Branch, DTP, NCI, 2025).
# Test system: 966289-007-R4-J1-PDC complex spheroid viability
# Experiment: Anticancer human tumor 966289-007-R4-J1-PDC patient-derived pancreatic adenocarcinoma cell line growth inhibition [GQUAD]
# Conditions: for IC50: curve of first compound; for viability, T/C: stronger effect = lower value
# Summary of the method: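 Tumor cells were grown as complex spheroids with HUVEC endothelial cells and mesenchymal stem cells as stroma. G-quadruplex stabilizers were combined with targeted agents over half-log dilutions from near the clinical Cmax, or from 10 microM.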
# [1] = second compound 0.0316 µM, first compound 0.0316 µM
# [2] = second compound 0.0316 µM, first compound 0.1 µM
# [3] = second compound 0.0316 µM, first compound 0.316 µM
# [4] = second compound 0.0316 µM, first compound 1 µM
# [5] = second compound 0.0316 µM, first compound 3.16 µM
# [6] = second compound 0.0316 µM, first compound 10 µM
# [7] = second compound 0.1 µM, first compound 0.0316 µM
# [8] = second compound 0.1 µM, first compound 0.1 µM
# [9] = second compound 0.1 µM, first compound 0.316 µM
# [10] = second compound 0.1 µM, first compound 1 µM
# [11] = second compound 0.1 µM, first compound 3.16 µM
# [12] = second compound 0.1 µM, first compound 10 µM
# [13] = second compound 0.316 µM, first compound 0.0316 µM
# [14] = second compound 0.316 µM, first compound 0.1 µM
# [15] = second compound 0.316 µM, first compound 0.316 µM
# [16] = second compound 0.316 µM, first compound 1 µM
# [17] = second compound 0.316 µM, first compound 3.16 µM
# [18] = second compound 0.316 µM, first compound 10 µM
# [19] = second compound 1 µM, first compound 0.0316 µM
# [20] = second compound 1 µM, first compound 0.1 µM
# [21] = second compound 1 µM, first compound 0.316 µM
# [22] = second compound 1 µM, first compound 1 µM
# [23] = second compound 1 µM, first compound 3.16 µM
# [24] = second compound 1 µM, first compound 10 µM
# [25] = second compound 3.16 µM, first compound 0.0316 µM
# [26] = second compound 3.16 µM, first compound 0.1 µM
# [27] = second compound 3.16 µM, first compound 0.316 µM
# [28] = second compound 3.16 µM, first compound 1 µM
# [29] = second compound 3.16 µM, first compound 3.16 µM
# [30] = second compound 3.16 µM, first compound 10 µM
# [31] = second compound 10 µM, first compound 0.0316 µM
# [32] = second compound 10 µM, first compound 0.1 µM
# [33] = second compound 10 µM, first compound 0.316 µM
# [34] = second compound 10 µM, first compound 1 µM
# [35] = second compound 10 µM, first compound 3.16 µM
# [36] = second compound 10 µM, first compound 10 µM
# 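Further: spheroids exposed to the agents for seven days before readout.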
# 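Wherever viability, T/C is given: percent viability relative to DMSO vehicle control wells taken as 100%.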
smiles,measurement,setting,value
CCCS(=O)(=O)Nc1ccc(F)c(C(=O)c2c[nH]c3ncc(-c4ccc(Cl)cc4)cc23)c1F + Cc1cnc(CNC(=O)c2c(=O)c3ccc(N4CCCN(C)CC4)nc3n3c2sc2ccccc23)cn1,IC50,second compound 0.0316 µM,6500 nM
same,IC50,second compound 0.1 µM,< 31.6 nM
same,IC50,second compound 0.316 µM,< 31.6 nM
same,IC50,second compound 1 µM,< 31.6 nM
same,IC50,second compound 3.16 µM,< 31.6 nM
same,IC50,second compound 10 µM,< 31.6 nM
same,"viability, T/C",[1],117%
same,"viability, T/C",[2],109%
same,"viability, T/C",[3],111%
same,"viability, T/C",[4],99.9%
same,"viability, T/C",[5],89.8%
same,"viability, T/C",[6],27.1%
same,"viability, T/C",[7],34.8%
same,"viability, T/C",[8],34.5%
same,"viability, T/C",[9],32%
same,"viability, T/C",[10],26.7%
same,"viability, T/C",[11],25.5%
same,"viability, T/C",[12],16.1%
same,"viability, T/C",[13],11.4%
same,"viability, T/C",[14],10.7%
same,"viability, T/C",[15],8.91%
same,"viability, T/C",[16],8.64%
same,"viability, T/C",[17],9.45%
same,"viability, T/C",[18],8.17%
same,"viability, T/C",[19],6.02%
same,"viability, T/C",[20],7.02%
same,"viability, T/C",[21],5.64%
same,"viability, T/C",[22],4.34%
same,"viability, T/C",[23],4.77%
same,"viability, T/C",[24],3.64%
same,"viability, T/C",[25],4.08%
same,"viability, T/C",[26],4.51%
same,"viability, T/C",[27],4.86%
same,"viability, T/C",[28],3.92%
same,"viability, T/C",[29],3.36%
same,"viability, T/C",[30],1.47%
same,"viability, T/C",[31],0.08%
same,"viability, T/C",[32],0.11%
same,"viability, T/C",[33],0.13%
same,"viability, T/C",[34],0.26%
same,"viability, T/C",[35],0.86%
same,"viability, T/C",[36],0.14%
COc1ncnc(C2CC2)c1-c1ncc2cnn(Cc3ccc(-c4nc(C(F)(F)F)cn4C(C)C)cc3)c2n1 + Cc1cnc(CNC(=O)c2c(=O)c3ccc(N4CCCN(C)CC4)nc3n3c2sc2ccccc23)cn1,IC50,second compound 0.0316 µM,> 10000 nM
same,IC50,second compound 0.1 µM,< 31.6 nM
same,IC50,second compound 0.316 µM,< 31.6 nM
same,IC50,second compound 1 µM,< 31.6 nM
same,IC50,second compound 3.16 µM,< 31.6 nM
same,IC50,second compound 10 µM,< 31.6 nM
same,"viability, T/C",[1],105%
same,"viability, T/C",[2],94.2%
same,"viability, T/C",[3],103%
same,"viability, T/C",[4],92.9%
same,"viability, T/C",[5],101%
same,"viability, T/C",[6],97.3%
same,"viability, T/C",[7],24.4%
same,"viability, T/C",[8],24.1%
same,"viability, T/C",[9],25.3%
same,"viability, T/C",[10],23.8%
same,"viability, T/C",[11],26.4%
same,"viability, T/C",[12],29.3%
same,"viability, T/C",[13],9.38%
same,"viability, T/C",[14],10.1%
same,"viability, T/C",[15],9.14%
same,"viability, T/C",[16],10.4%
same,"viability, T/C",[17],10.8%
same,"viability, T/C",[18],10.4%
same,"viability, T/C",[19],6.44%
same,"viability, T/C",[20],5.74%
same,"viability, T/C",[21],6.97%
same,"viability, T/C",[22],5.21%
same,"viability, T/C",[23],5.65%
same,"viability, T/C",[24],7.13%
same,"viability, T/C",[25],4.34%
same,"viability, T/C",[26],4.38%
same,"viability, T/C",[27],4.76%
same,"viability, T/C",[28],4.44%
same,"viability, T/C",[29],5.14%
same,"viability, T/C",[30],5.37%
same,"viability, T/C",[31],0.08%
same,"viability, T/C",[32],0.13%
same,"viability, T/C",[33],0.17%
same,"viability, T/C",[34],0.16%
same,"viability, T/C",[35],0.4%
same,"viability, T/C",[36],0.41%
O=C(NO)c1cnc(N2CCN(S(=O)(=O)c3ccc4ccccc4c3)CC2)nc1 + Cc1cnc(CNC(=O)c2c(=O)c3ccc(N4CCCN(C)CC4)nc3n3c2sc2ccccc23)cn1,IC50,second compound 0.0316 µM,209 nM
same,IC50,second compound 0.1 µM,< 31.6 nM
same,IC50,second compound 0.316 µM,< 31.6 nM
same,IC50,second compound 1 µM,< 31.6 nM
same,IC50,second compound 3.16 µM,< 31.6 nM
same,IC50,second compound 10 µM,< 31.6 nM
same,"viability, T/C",[1],96.4%
same,"viability, T/C",[2],87.3%
same,"viability, T/C",[3],28.8%
same,"viability, T/C",[4],8.77%
same,"viability, T/C",[5],2.84%
same,"viability, T/C",[6],0.33%
same,"viability, T/C",[7],31.3%
same,"viability, T/C",[8],31.9%
same,"viability, T/C",[9],10.8%
same,"viability, T/C",[10],4.55%
same,"viability, T/C",[11],2.02%
same,"viability, T/C",[12],0.31%
same,"viability, T/C",[13],7.24%
same,"viability, T/C",[14],5.47%
same,"viability, T/C",[15],3.67%
same,"viability, T/C",[16],2.76%
same,"viability, T/C",[17],1.03%
same,"viability, T/C",[18],0.05%
same,"viability, T/C",[19],4.18%
same,"viability, T/C",[20],2.98%
same,"viability, T/C",[21],3.68%
same,"viability, T/C",[22],0.86%
same,"viability, T/C",[23],0.32%
same,"viability, T/C",[24],0.05%
same,"viability, T/C",[25],1.88%
same,"viability, T/C",[26],2.14%
same,"viability, T/C",[27],0.08%
same,"viability, T/C",[28],0.05%
same,"viability, T/C",[29],0.06%
same,"viability, T/C",[30],0.1%
same,"viability, T/C",[31],0.03%
same,"viability, T/C",[32],0.09%
same,"viability, T/C",[33],0.1%
same,"viability, T/C",[34],0.09%
same,"viability, T/C",[35],0.53%
same,"viability, T/C",[36],0.23%
O=c1[nH]cc(F)c(=O)[nH]1 + Cc1cnc(CNC(=O)c2c(=O)c3ccc(N4CCCN(C)CC4)nc3n3c2sc2ccccc23)cn1,IC50,second compound 0.0316 µM,152 nM
same,IC50,second compound 0.1 µM,< 31.6 nM
same,IC50,second compound 0.316 µM,< 31.6 nM
same,IC50,second compound 1 µM,< 31.6 nM
same,IC50,second compound 3.16 µM,< 31.6 nM
same,IC50,second compound 10 µM,< 31.6 nM
same,"viability, T/C",[1],110%
same,"viability, T/C",[2],70.7%
same,"viability, T/C",[3],13.4%
same,"viability, T/C",[4],6.62%
same,"viability, T/C",[5],6.16%
same,"viability, T/C",[6],7.17%
same,"viability, T/C",[7],35.3%
same,"viability, T/C",[8],38.2%
same,"viability, T/C",[9],16.7%
same,"viability, T/C",[10],9.09%
same,"viability, T/C",[11],8.85%
same,"viability, T/C",[12],9.1%
same,"viability, T/C",[13],11%
same,"viability, T/C",[14],14.4%
same,"viability, T/C",[15],13.6%
same,"viability, T/C",[16],10.8%
same,"viability, T/C",[17],10.2%
same,"viability, T/C",[18],12.7%
same,"viability, T/C",[19],6.94%
same,"viability, T/C",[20],8.36%
same,"viability, T/C",[21],9.57%
same,"viability, T/C",[22],9.08%
same,"viability, T/C",[23],8.58%
same,"viability, T/C",[24],8.28%
same,"viability, T/C",[25],4.97%
same,"viability, T/C",[26],5.62%
same,"viability, T/C",[27],7.29%
same,"viability, T/C",[28],6.64%
same,"viability, T/C",[29],6.67%
same,"viability, T/C",[30],8.36%
same,"viability, T/C",[31],0.04%
same,"viability, T/C",[32],0.08%
same,"viability, T/C",[33],2.48%
same,"viability, T/C",[34],0.28%
same,"viability, T/C",[35],2.43%
same,"viability, T/C",[36],0.18%
